Test results published in PMC2887688 (Journal of biomolecular screening, 2010).
Entries after “also recorded” stand apart in the source; their conditions may differ.

Key:
[1] = tested on: undifferentiated 3T3-L1 preadipocytes; test: BODIPY-FA uptake in undifferentiated 3T3-L1 preadipocytes/fibroblasts, FLIPR; assay type: cell-based, murine
3T3-L1 adipocytes = test: LCFA; assay type: cell-based, murine; settings: insulin 0.2 – 1.7 uM
hsFATP5 = biological target: T1, hsFATP5 (Homo sapiens, UniProt Q9Y2P5); test: BODIPY-FA; assay type: cell-based; settings: hsFATP5 cells, data not shown
T1 sequence (Q9Y2P5 1-690): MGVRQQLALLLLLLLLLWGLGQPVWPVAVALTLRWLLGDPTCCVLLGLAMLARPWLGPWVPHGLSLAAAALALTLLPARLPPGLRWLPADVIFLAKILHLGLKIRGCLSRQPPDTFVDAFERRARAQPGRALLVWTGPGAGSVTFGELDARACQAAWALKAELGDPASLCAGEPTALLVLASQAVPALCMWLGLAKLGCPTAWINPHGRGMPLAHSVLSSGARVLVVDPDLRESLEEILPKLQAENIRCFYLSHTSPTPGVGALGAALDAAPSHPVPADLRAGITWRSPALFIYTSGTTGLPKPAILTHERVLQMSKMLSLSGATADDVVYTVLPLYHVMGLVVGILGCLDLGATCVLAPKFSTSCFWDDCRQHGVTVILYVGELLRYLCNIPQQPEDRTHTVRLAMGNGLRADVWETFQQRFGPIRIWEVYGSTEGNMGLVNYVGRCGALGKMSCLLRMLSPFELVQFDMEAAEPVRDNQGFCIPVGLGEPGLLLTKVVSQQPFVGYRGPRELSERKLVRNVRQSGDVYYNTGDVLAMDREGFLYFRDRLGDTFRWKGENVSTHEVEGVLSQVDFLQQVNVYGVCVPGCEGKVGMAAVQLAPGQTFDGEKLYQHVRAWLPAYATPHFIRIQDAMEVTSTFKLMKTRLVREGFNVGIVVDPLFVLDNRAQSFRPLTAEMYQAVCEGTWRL

hsFATP4 = hsFATP4 (Homo sapiens, UniProt Q6P1M0); test: BODIPY-FA; assay type: cell-based; settings: hsFATP4 cells
Chain of hsFATP4 (Q6P1M0 whole entry): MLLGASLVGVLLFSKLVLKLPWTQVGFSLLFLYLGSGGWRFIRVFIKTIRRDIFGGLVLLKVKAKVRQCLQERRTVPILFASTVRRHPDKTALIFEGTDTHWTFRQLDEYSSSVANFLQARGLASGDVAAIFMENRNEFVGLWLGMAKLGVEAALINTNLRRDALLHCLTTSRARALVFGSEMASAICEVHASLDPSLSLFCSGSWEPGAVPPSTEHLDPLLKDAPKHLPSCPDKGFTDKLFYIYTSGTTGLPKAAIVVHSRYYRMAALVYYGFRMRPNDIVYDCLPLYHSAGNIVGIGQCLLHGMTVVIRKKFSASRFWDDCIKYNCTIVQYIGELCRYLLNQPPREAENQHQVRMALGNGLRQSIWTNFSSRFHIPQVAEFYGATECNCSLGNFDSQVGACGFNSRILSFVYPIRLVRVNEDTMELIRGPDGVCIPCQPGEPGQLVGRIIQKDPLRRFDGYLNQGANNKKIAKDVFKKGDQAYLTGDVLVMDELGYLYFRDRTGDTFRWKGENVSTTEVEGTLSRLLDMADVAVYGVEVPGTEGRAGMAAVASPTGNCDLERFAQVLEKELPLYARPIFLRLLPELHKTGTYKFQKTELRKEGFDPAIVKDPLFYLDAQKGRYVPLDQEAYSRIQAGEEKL

Molecule: insulin: adipogenic hormone insulin, enhances LCFA uptake in adipocytes
- effect on uptake in undifferentiated 3T3-L1 preadipocytes/fibroblasts [1]: much weaker effects; also recorded: minimal effect
- maximal insulin-induced uptake over the baseline of adipocytes (3T3-L1 adipocytes): about two- to three-fold

Molecule: CCCCCCCCCCCCCCCC(=O)O [palmitic acid]
- inhibition of fatty acid uptake by FATP5 (in words) (hsFATP5): did not inhibit
- inhibition of fatty acid uptake by FATP4 (in words) (hsFATP4; FLIPR concentration-response): did not inhibit

Molecule: C[C@H](CCC(=O)O)[C@H]1CC[C@H]2[C@@H]3[C@@H](O)C[C@@H]4C[C@H](O)CC[C@]4(C)[C@H]3CC[C@]12C [ursodiol, ursodeoxycholic acid]
- increase of fatty acid uptake signal by hsFATP4 at high concentration (in words) (hsFATP4; FLIPR): apparent signal increase at 100 uM
